Reference: paper PMC12165925 (Natural Products and Bioprospecting, 2025)

Legend:
Assay in all cases: microbe, parasite or virus in culture
Format in all cases: cell-based
Conditions in all cases: hACE2-HEK293T cells
[1] = test system: SARS-CoV-2-S pseudovirus Gamma variant
[2] = test system: SARS-CoV-2-S pseudovirus Delta variant
[3] = test system: SARS-CoV-2-S pseudovirus Omicron variant

Compound	IC50 [1]	IC50 [2]	IC50 [3]
C[C@@H]1O[C@@H](O[C@H]2[C@H](OC(=O)[C@]34CCC(C)(C)C[C@H]3C3=CC[C@@H]5[C@@]6(C)C[C@H](O)[C@H](O[C@@H]7O[C@H](CO)[C@@H](O)[C@H](O)[C@H]7O)C(CO)(CO)[C@@H]6CC[C@@]5(C)[C@]3(C)C[C@H]4O)OC[C@H](O)[C@@H]2O)[C@H](O)[C@H](O)[C@H]1O[C@@H]1OC[C@@H](O)[C@H](O)[C@H]1O [DPD, Deapio platycodin D]	1 ± 0.04 µM	0.83 ± 0.07 µM	1.03 ± 0.02 µM
Oc1cc(O)c2cc(O)c(-c3cc(O)c(O)c(O)c3)[o+]c2c1 [Delphinidin]	> 200 µM	> 200 µM	10.8 ± 0.68 µM
